Structures can show the parent of a compound that is named as a salt. No end group written: not given here.
Columns and labels:
σ1R-NR1 C1 = target: T1, σ1R-NR1 C1 (Mus musculus, UniProt O55242); assay: In vitro σ1R-NR1 C1 association of recombinant proteins (Western blot); assay type: biochemical, murine; conditions: increasing concentrations; 30 min RT; vs control without ligand
T1 construct: The coding region of the full-length murine σ1R (AF004927); GST (N, cleaved yes); made in house; host or cells: E. coli BL21 (KRX)
T1 sequence (O55242 whole entry): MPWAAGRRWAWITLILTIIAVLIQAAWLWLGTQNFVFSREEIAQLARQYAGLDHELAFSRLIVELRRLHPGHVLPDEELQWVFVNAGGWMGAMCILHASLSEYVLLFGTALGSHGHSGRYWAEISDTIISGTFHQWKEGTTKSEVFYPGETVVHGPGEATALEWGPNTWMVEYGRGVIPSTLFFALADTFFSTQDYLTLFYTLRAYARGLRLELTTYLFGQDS
Description: (§1) Figure 7 Effect of β-End 1–31, ^αN-acetyl β-End 1–31 and their N-terminal derivatives on σ1R-σ2R, σ1R-NR1 C1 and σ1R-BiP associations. Amino acid sequence of β-End 1–31 showing derivatives 1–26 and 1–27. (A) HaloLink-attached σ2Rs were incubated for 30 min at RT in the presence of σ1Rs (100 nM) in 300 μL of 50 mM Tris-HCl (pH 7.4), 0.2% CHAPS, and 2.5 mM CaCl2. After removing the unbound σ1R proteins, the effects of increasing the peptide concentrations on σ1R-σ2R associations were studied. At the end of the incubation, protein complexes bound to HaloLink-σ2R were obtained by centrifugation, washed three times, solubilized in 2× Laemmli buffer containing β-mercaptoethanol, resolved by SDS-PAGE, and analyzed by Western blotting (for more details, see Section 4). This protocol was also used to assess the effect of ligands on (B) σ1R-NR1 C1 and (C) σ1R-BiP associations. Data were compared to that of the control, which was obtained in the absence of ligands. (A–C) Data are the mean ± SD, n = 3. (D) The β-End 1–31 structural models were predicted by Novafold (DNASTAR Lasergene protein v.17, Inc., Madison, WI, USA). Ribbon model: The 3D structure, charge distribution and hydrophobicity map of β-End 1–31 are shown. Positive charges are shown in red and negative charges in blue. Polar surfaces are shown in yellow, and nonpolar surfaces are shown in orange. Linear model: the opioid (1–5) and flexible region (8–11) sequences are shown in green and orange, respectively, and the amphiphilic helix (15–25) is shown in pink.
(§2) The recombinant σ1R (100 nM) was incubated either with Haloprotein (negative control) or together with the immobilized σ2R, NR1 C0-C1-C2 or BiP proteins in 300 µL of a buffer containing 50 mM Tris-HCl (pH 7.4) and 0.2% CHAPS in the presence of 2.5 mM CaCl2 for 30 min at RT. After removal of the unbound σ1R, the agarose-attached complexes were incubated for 30 min with rotation at RT in the presence of increasing concentrations of the ligands in a final reaction volume of 300 µL [50 mM Tris-HCl (pH 7.4), 2.5 mM CaCl2 and 0.2% CHAPS]. Ligands were usually dissolved in aqueous solutions; however, when an organic solvent such as DMSO was required to incorporate, e.g., pregnenolone sulfate, the solvent remained below 1% in the assay buffer. Agarose pellets containing the bound proteins were obtained by centrifugation, washed and resuspended thrice in the presence of 2.5 mM CaCl2, solubilized in 2× Laemmli buffer plus β-mercaptoethanol, and analyzed by Western blotting.
(§3) Because all the assays were performed with recombinant proteins, the immune signals provided a single band of the expected size, which was used for the subsequent densitometry analysis. Accordingly, no other regions of the blots provided information and were routinely excluded from the analysis.
Figure S8. Effect of the physiological and nonphysiological sequences of β-End 1-31 and classical σ1R ligands on BiP-σ1R, σ2R-σ1R and NR1 C1-σ1R associations . […]
D) Agarose-NR1 C1 loaded with […]
σ1Rs were incubated in the absence (control) and with nonphysiological derivatives of β-End 1-31. A-D) The σ1Rs that remained attached to the agarose complexes were evaluated by Western blotting. The […]
(§4) (1 picture or pasted object on this page, not shown here)
Figure S9. Effect of σ1R agonist/antagonist ligands on σ1R-NR1 C1 associations. Θ-Agarose-NR1 C1 was loaded with recombinant σ1Rs. After unbound σ1R proteins were removed, the complexes were incubated with (A) 1 nM β-End 1-31, (B) αN-acetyl β-End 1-31, (C-D) β-End 28-31 in the absence (black columns) and presence of (A) 10 nM or (B-D) increasing concentrations of competing σ1R ligands as indicated. The σ1Rs that remained attached to the Θ-σ2Rs were evaluated by Western blotting. The […]
Prog is progesterone; PregSulfate is pregnenolone sulfate; Nac is […]

σ1R-σ2R = σ1R-σ2R (Mus musculus, UniProt O55242); assay: In vitro σ1R-σ2R association of recombinant proteins (HaloLink-σ2R, Western blot); assay type: biochemical, murine; design: The coding region of the full-length murine σ1R (AF004927); GST (N, cleaved yes); made in house; host or cells: E. coli BL21 (KRX); conditions: increasing concentrations; 30 min RT; vs control without ligand
Sequence of σ1R-σ2R (O55242 whole entry): as above
Description: as §1, §2, §3
Figure S7. Effect of σ1R agonist/antagonist ligands on σ1R-σ2R heterodimers. (A-C) Agarose (Θ)- attached σ2Rs captured recombinant σ1Rs. After removing unbound σ1R proteins, the Θ-σ2R.σ1R complexes were incubated with a ﬁxed concentration of a selected L1 ligand (indicated in brackets) in the absence and presence of increasing concentrations of competing σ1R ligands as indicated. The σ1Rs that remained attached to the Θ-σ2Rs were evaluated by Western blotting. * Signiﬁcant differences with respect to the control group that was incubated without L1 ligands. ANOVA followed by the Holm-Sidak multiple comparisons test, p < 0.05. For details, see Methods and Figure 6A. Representative blots are […]
Figure S8. Effect of the physiological and nonphysiological sequences of β-End 1-31 and classical σ1R ligands on BiP-σ1R, σ2R-σ1R and NR1 C1-σ1R associations . Agarose-BiP was loaded with σ1Rs, and after the unbound σ1Rs were removed, the agarose-BiP-σ1R complexes were incubated in the absence (control) and presence of increasing concentrations of (A) β-End 1-31 C-terminal physiological derivatives and (B) classical σ1R ligands. C) Agarose-σ2R loaded with σ1Rs was incubated in the […]

[1] = tested on: CD1 mice (wild-type and σ1R−/−); assay: Supraspinal analgesia, warm water (52 °C) tail-flick test; assay type: in vivo, mouse; conditions: for analgesia of the substance in σ1R−/− mice compared with wild-type: icv: morphine 3 nmol, β-End 1–31 0.5 nmol, DAMGO 0.1 nmol, DPDPE 10 nmol, WIN55,212-2 15 nmol, 8 mice per strain
Description: Upper panel: the withdrawal thresholds of the contralateral and ipsilateral paws were measured before (indicated as 0) and up to 14 days after surgery. […] Middle panel: 0.3 and 3 nmol of ^αN-acetyl β-End 1–31 were administered icv 7 days after surgery, and the nociceptive threshold was evaluated at the indicated postinjection intervals (in minutes). For every time interval studied in min or days, * indicates a significant difference from the group that received saline instead of ^αN-acetyl β-End 1–31; ϕ significant difference from the effect of 3 nmol ^αN-acetyl β-End 1–31. […] All data are presented as the mean ± SD of six mice. ANOVA followed by the Holm–Sidak multiple comparisons test, p < 0.05, 1-β > 0.80. […] Upper panel: wild-type mice were injected icv with saline, ^αN-acetyl β-End 1–31 (1 nmol/mouse) or the combination of the σ1R agonist PPCC (3 nmol/mouse) plus ^αN-acetyl β-End 1–31 20 min before morphine and β-End 1–31. Analgesia was evaluated by the warm water (52 °C) tail-flick test at the interval postinjection corresponding to their peak effect, 30 min. Lower panel: σ1R^−/− mice received 1 nmol ^αN-acetyl β-End 1–31, 20 min before morphine and β-End 1–31 and analgesia was evaluated as described above. Eight mice were used per strain and treatment. * Significant difference with respect to the group treated with morphine or β-End 1–31 alone. ANOVA followed by the Holm–Sidak multiple comparisons test, p < 0.05, 1-β > 0.80.
Figure 3 Effect of physiological β-End 1–31 derivatives on morphine and β-End 1–31 analgesia. […] (A) The mice were icv-injected with 25 nmol of β-End 1–26, β-End 1–27 and ^αN-acetylated derivatives 20 min before icv 0.5 nmol β-End 1–31. Analgesia was determined at the indicated postinjection intervals. (B) CD1 wild-type and σ1R^−/− mice were administered C terminal peptide sequences 27–31, 28–31 and 30–31 of β-End 1–31 through an icv injection 20 min before 0.5 nmol of the whole β-End 1–31 and morphine (10 nmols) were injected icv. […] (C) A series of exogenous σ1R ligands (3 nmol) were icv-injected 20 min before 0.5 nmol β-End 1–31 was administered via icv in wild-type mice. The σ1R antagonist S1RA was also icv-injected before β-End 1–31 was administered icv in σ1R^−/− mice. (D) The effects of several doses of S1RA on morphine analgesia were studied in wild-type and σ1R^−/− mice. […] ANOVA followed by the Holm–Sidak multiple comparisons test, p < 0.05, 1-β > 0.80.
(A) The effect of σ1R deletion on opioid- and cannabinoid-induced analgesia. Analgesic compounds were icv-injected into wild-type and σ1R^−/− mice, and analgesia was evaluated 30 min after morphine (3 nmol) and β-End 1–31 (0.5 nmol), 15 min after DAMGO (0.1 nmol) and DPDPE (10 nmol) and 10 min after WIN55,212-2 (15 nmol). The bars are the mean ± SD of eight mice per strain and treatment. * Significant difference with respect to the effect of the analgesic substance in the wild-type group. ANOVA followed by the Holm–Sidak multiple comparisons test, p < 0.05, 1-β > 0.80. (B) Coprecipitation of G proteins with MORs. Solubilized mouse brain cortical membranes enriched in synaptosomes (SBM) from CD1 wild-type (WT) and σ1R^−/− mice were solubilized with sonication in the presence of 1% NP-40. Non-soluble debris was eliminated, and the samples were then incubated overnight at 4 °C with affinity-purified biotinylated IgGs that were raised against extracellular regions of the MOR. Protein complexes that were immunoprecipitated with streptavidin agarose were extensively washed and then resolved by SDS-PAGE.

σ1R-BiP = target: T2, σ1R-BiP (Mus musculus, UniProt O55242); assay: In vitro σ1R-BiP association of recombinant proteins (Western blot); assay type: biochemical
T2 construct: The coding region of the full-length murine σ1R (AF004927); GST (N, cleaved yes); host or cells: E. coli BL21 (KRX) for σ1R
T2 sequence (O55242 whole entry): as above
Description: as §1, §2, §3
Figure S8. Effect of the physiological and nonphysiological sequences of β-End 1-31 and classical σ1R ligands on BiP-σ1R, σ2R-σ1R and NR1 C1-σ1R associations . Agarose-BiP was loaded with σ1Rs, and after the unbound σ1Rs were removed, the agarose-BiP-σ1R complexes were incubated in the absence (control) and presence of increasing concentrations of (A) β-End 1-31 C-terminal physiological derivatives and (B) classical σ1R ligands. C) Agarose-σ2R loaded with σ1Rs was incubated in the absence (control) and with nonphysiological derivatives of β-End 1-31. D) Agarose-NR1 C1 loaded with σ1Rs were incubated in the absence (control) and with nonphysiological derivatives of β-End 1-31. A-D) The σ1Rs that remained attached to the agarose complexes were evaluated by Western blotting. The […]
as §4
Figure S10. Effect of σ1R agonist/antagonist ligands on σ1R-BiP associations. Agarose-attached BiP proteins were incubated for 30 min in the presence of recombinant σ1R (100 nM) proteins in 300 μL of 50 mM Tris-HCl (pH 7.4), 0.2% CHAPS, and 2.5 mM CaCl2. After the unbound σ1R proteins were […]

Row | Compound | effect on σ1R-NR1 C1 association (σ1R-NR1 C1) | effect on σ1R-σ2R association (σ1R-σ2R) | analgesia of the substance in σ1R−/− mice compared with wild-type [1] | further results
1 | YGGFL [leu-enkephalin, leucine-enkephalin 1–5] | dissociated σ1R-NR1 C1 complexes | disrupted this association |  | 
2 | β-End 1–16: nonphysiological fragment of β-End 1–31 (YGGFMTSEKSQTPLVT; Beta-endorphin; UniProt P01189 237-252, looked up, fragment) |  |  |  | effect on β-End 1–31 analgesia, nonphysiological fragments ([1]; 1 nmol icv 20 min before 0.5 nmol β-End 1–31 icv, 6 mice): practically did not alter β-End 1–31 analgesia
3 | ^αN-acetyl leu-enkephalin: chimeric ^αN-acetylated leu-enkephalin |  | protective |  | 
4 | CN1CC[C@]23c4c5ccc(O)c4O[C@H]2[C@@H](O)C=C[C@H]3[C@H]1C5 [morphine, morphine sulfate] |  |  | increased analgesic response | 
5 | β-End 1–4: fragment 1–4 of β-End 1–31 (YGGF; Beta-endorphin; UniProt P01189 237-240, looked up, fragment) | enhancement |  |  | 
6 | GGFL [leu-enkephalin 2–5 metabolite] |  | disrupted this association |  | 
7 | YGGFM [met-enkephalin, methionine-enkephalin, β-End N-terminal derivative 1–5] | enhancement | promoted the sigma receptor heterodimer |  | 
8 | GGFM [met-enkephalin 2–5 aminopeptidase product] |  | promoted the sigma receptor heterodimer |  | 
9 | ([D-Ala2, N-MePhe4, Gly-ol]-enkephalin [DAMGO] |  |  | augmented | 
10 | ([D-Pen2,D-Pen5]enkephalin) [DPDPE] |  |  | did not significantly change | 
11 | β-End 2–31: β-End 1–31 without Y1 (GGFMTSEKSQTPLVTLFKNAIIKNAYKKGE; Beta-endorphin; UniProt P01189 238-267, looked up, fragment) | promoting the σ1R-NR1 C1 association | diminished σ1R-σ2R associations |  | 
12 | ^αN-acetyl β-End 1–27: ^αN-acetylated form of β-End 1–27 (Ac-YGGFMTSEKSQTPLVTLFKNAIIKNAY; UniProt P01189 237-263, looked up, fragment) |  |  |  | activity at σ1R-BiP against agonists / β-End 1–31 (σ1R-BiP; 1 nM β-End 1–31 with increasing competitor (Figure S10)): antagonist activity; effect on σ1R-BiP association (σ1R-BiP; increasing concentrations, 30 min RT, vs control without ligand): promoted σ1R-BiP complexes
13 | Cc1c(C(=O)c2cccc3ccccc23)c2cccc3c2n1[C@H](CN1CCOCC1)CO3 [WIN55,212–2] |  |  | did not significantly change | 
